Calls of active or inactive are those of the source.
What was measured:
U-87MG ATCC [1] = assay: Anti-tumor activity against human U-87 MG cells xenografted in BALB/c nude mouse assessed as reduction in tumor growth administered IT measured every 3 days by electronic caliper analysis; type: functional; settings: dose 0.18-0.55 MBq, DDE = dose-dependent effect, tested as the 211At-labelled form
U-87MG ATCC [2] = assay: Inhibition of colony formation in human U-87 MG cells incubated in radioactive medium for 12 hrs followed by incubation in non-radioactive medium for 14 days by crystal violet staining based analysis; type: functional, cell-based; settings: dose 4.6-18.5 kBq, time 852.0 hrs, tested as the 211At-labelled form, DDE = dose-dependent effect
U-87MG ATCC [3] = assay: Cytotoxicity against human U-87 MG cells assessed as reduction in cell viability incubated in radioactive medium for 12 hrs followed by incubation in non-radioactive medium for 24 hrs by CCK8 assay; type: functional, cell-based; settings: dose 12-92 kBq, time 36.0 hrs, tested as the 211At-labelled form, DDE = dose-dependent effect
U-87MG ATCC [4] = assay: Antitumor activity against human U-87 MG cells xenografted in BALB/c nude mouse assessed as reduction in Ki67 expression in tumor at 0.55 MBq, it measured after 12 days by immunohistochemical analysis; type: functional, cell-based; settings: time 12.0 day, tested as the 211At-labelled form
U-87MG ATCC [5] = assay: Induction of apoptosis in human U-87 MG cells assessed as fragmented and condensed chromatin at 18.5 to 185 kBq measured after 24 hrs by DAPI staining based confocal microscopy; type: functional, cell-based; settings: dose 18.5-185 kBq, tested as the 211At-labelled form
U-87MG ATCC [6] = assay: Induction of cell cycle arrest in human U-87 MG cells assessed as increase in proportion of cells at S phase at 185 kBq incubated in radioactive medium for 12 hrs followed by incubation in non-radioactive medium for 24 hrs by PI staining based flow cytometry; type: functional; settings: time 36.0 hrs, tested as the 211At-labelled form

N#C[C@@H]1CC(F)(F)CN1C(=O)CNC(=O)c1ccnc2ccc(OCCCN3CCN(C(=O)c4ccc([At])cc4)CC3)cc12
active: Activity (U-87MG ATCC [1]) Dde | inhibition (U-87MG ATCC [2]) Dde | Activity (U-87MG ATCC [3]) Dde | Activity (U-87MG ATCC [4]) | Activity (U-87MG ATCC [5]) | Activity (U-87MG ATCC [6])

Reference: ChEMBL document CHEMBL5126522, “In vitro and in vivo evaluation of 211At-labeled fibroblast activation protein inhibitor for glioma treatment” (Bioorg Med Chem, 2022)
